Key:
[1] = tested on: human umbilical vein endothelial cells (HUVEC); assay: CCK8 metabolic activity of printed thin slabs, HUVEC in GelMA; format: cell-based; conditions: 35% vs 0% IDX; 5% GelMA, 2 million/mL HUVEC; 7 days culture; n=6, p>0.1
Excerpt: (§1) In order to verify IDX's biocompatibility with various biomaterials and cell types, we performed thin slab bioprinting using three commonly used formulas: human umbilical vein endothelial cells (HUVEC) in GelMA, human Schwann cells (HSC) in glycidyl methacrylate hyaluronic acid (GMHA), and C2C12 in alginate methacrylate (AlgMA). FIGS. 7A and 7B are plots of the refractive indices of these common bioinks at various biopolymer and IDX concentrations, respectively. Since the ideal IDX concentration range varies between 20% and 35%, we chose to compare 3D printed tissues in which 0% or 35% IDX was used. As will be apparent to those of skill in the art, other bioinks may be used including, but not limited to, multi-arm PEG (polyethylene glycol), Gel-NB (Gelatin-norbornene), Gel-SH (Gelatin-thiol), and combinations thereof, including HA-NB, HA-SH, etc. Furthermore, the sample cell types described herein are not intended to be limiting but were selected to evaluate the process's impact on viability of mammalian cells. Applications of the inventive approach go well beyond mammalian tissue/organ fabrication. […]
(§2) Cell viability in the printed thin slabs was quantified with Cell Counting Kit-8 (CCK-8, K1018, ApexBio). […] After incubation, 200 μL supernatant was collected from each sample and their OD at 450nm was measured with Tecan Infinite 200 pro.

[2] = tested on: human Schwann cells (HSC); assay: CCK8 metabolic activity of printed thin slabs, HSC in GMHA; format: cell-based; conditions: 35% vs 0% IDX; 2.5% GMHA, 0.5% GelMA, 10 million/mL HSC; 7 days culture; n=6, p>0.1
Excerpt: as §1, §2

[3] = tested on: C2C12; assay: CCK8 metabolic activity of printed thin slabs, C2C12 in AlgMA; format: cell-based; conditions: 35% vs 0% IDX; 1% AlgMA, 0.25% GelMA, 10 million/mL C2C12; 7 days culture; n=6, p>0.1
Excerpt: as §1, §2

[4] = tested on: HUVEC; assay: Live/Dead staining of printed HUVEC thin slabs; format: cell-based; conditions: HUVEC in GelMA thin slabs
Excerpt: (§3) The bioink used in HUVEC viability experiment (FIGS. 3A, 3D) consists of 5% GelMA, 0.6% LAP, 2 million/mL HUVEC cells, 0% or 35% IDX, and PBS as solvent. The bioink used in HSC viability experiment (FIG. 3B) consists of 2.5% GMHA, 0.5% GelMA, 0.6% LAP, 10 million/mL HSC cells, 0% or 35% IDX, and PBS as solvent. The bioink used in C2C12 viability experiment (FIG. 3C) consists of 1% AlgMA, 0.25% GelMA, 0.6% LAP, 10 million/mL C2C12 cells, 0% or 35% IDX, and PBS as solvent. The bioink used in HUVEC RNAseq experiment (FIG. 3G) consists of 5% GelMA, 0.6% LAP, 10 million/mL HUVEC cells, 0% or 35% IDX, and PBS as solvent.
(§4) In addition, live/dead staining was also used to characterize cell viability. HUVEC in GelMA bioink is printed as thin slabs with either 0% or 35% IDX. […] Furthermore, the cytoskeleton of HUVECs was stained using phalloidin to visualize the cells' morphology.
The cell viability was also evaluated with Live/Dead staining. At designated time points, the slabs were washed with DPBS twice, incubated with 2 μM Calcein AM (C3099, Invitrogen) and 3 μM propidium iodide (P3566, Invitrogen) in the fresh culture media at their regular incubation condition for 30 min. After incubation, the slabs were washed with DPBS twice and imaged with Leica DMI6000B fluorescence microscope. The live cell percentage was counted using particle analysis tool in ImageJ.

[5] = tested on: HUVEC; assay: Phalloidin cytoskeleton staining of printed HUVEC slabs; format: cell-based, human; conditions: 0% vs 35% IDX, day 7
Excerpt: as §4

[6] = tested on: HUVEC; assay: RNA-seq of HUVECs in 3D-printed GelMA hydrogel (DESeq2, GSEA); format: cell-based, human
Excerpt: as §3
This is especially important for vasculature-on-a-chip studies, where the metabolism and immune-regulation of the endothelium is of interest. […] Here, RNA-sequencing (RNA-seq) was performed to comprehensively investigate the potential changes caused by IDX exposure in the HUVECs in 3D-printed GelMA hydrogel.
Differential expression was first investigated with DESEQ2. […] To further evaluate the biological impact that IDX brought to the bioprinted vasculature, Gene Set Enrichment Analysis (GSEA) using the Molecular Signature Database (MSigDB) was used. […] The heme metabolism is believed to be a result of the oxidative stress induced by the IDX, and the enrichment in the complement system is potentially related to inflammatory responses. These findings correlate well with the clinically observed adverse effects and previous toxicological studies of IDX.
HUVECs were 3D printed in 250 μm slabs using GelMA bioink with 0% or 35% IDX. After 7 days of culture, the RNAs from the 3D printed slabs are extracted with TRIzol reagent (15596018, Ambion) followed by purification using spin column method with Direct-zol RNA Microprep (R2060, Zymo Research). The RNA quality evaluation and sequencing was performed by Novogen Inc. The sequencing data was analyzed with FastQC, trimmed with Trimmomatic, aligned with HISAT2, annotated with StringTie. Differential gene expression was analyzed with DESeq2. Gene set enrichment analysis was performed with GSEA_4.2.3 (Broad Institute). Network analysis was performed with Cytoscape 3.9.1 using the EnrichmentMap application.

[7] = Refractive index measurement at 405 nm; format: physicochemical
Description: Tests verified that IDX can effectively tune the refractive index by measuring the refractive index of bioinks comprising 5% GelMA and various concentrations of IDX at the working wavelength of the bioprinter (405 nm). For refractive index measurement, mixtures of 5% GelMA with 0%, 20%, 25%, 30%, or 35% IDX, and PBS as solvent were prepared. […] The refractive indices of bioinks comprising 5% GelMA and 0% IDX, as well as the as-purchased IDX solution (OptiPrep™, Sigma-Aldrich) which contains 60% IDX, are also plotted for reference.
The refractive index of bioink can be measured using a simple refractometer with a 405 nm laser. […] The converging beam enters the prism-sample interface at different angles, and total internal reflection (TIR) happens at some of these angles. The diverging beam exits the prism, is collimated by a lens, and collected by a camera. […] In order to accurately relate the TIR boundary position on the captured image to the actual reflecting angle, water and isopropanol, whose refractive index and thus TIR critical angles are known, were used to calibrate this relation.

[8] = Scattering properties of cell-laden bioink (Monte-Carlo with particle swarm optimization); format: physicochemical
Description: The scattering effect of the material is usually characterized by scattering coefficient, anisotropy, and reduced scattering coefficient. To further verify that a proper concentration of IDX can effectively reduce the bioinks' scattering effect, bioinks comprising 5% GelMA, 40 million/mL 293T cells, and various IDX concentrations (0%, 20%, 25%, 30%, or 35%) were prepared. An approach that combined Monte-Carlo simulation and particle swarm optimization algorithm was used to determine the bioink's scattering properties at the working wavelength of the bioprinter (405 nm). […] The bioink without refractive index tuning has a scattering coefficient of 11.76 mm^−1, and a reduced scattering coefficient of 0.164 mm^−1. […] By carefully tuning the concentration of contrast agent, scattering can potentially be further reduced.
We used a well-developed 3D Monte-Carlo method combined with a particle swarm optimization algorithm (57) to numerically calculate the scattering properties of the cell-laden bioinks. The total transmittance and total reflectance at 405 nm of the 1 mm thick bioink containing 40 million/mL cells were measured using a UV-Vis-NIR spectroscope (Perkin Elmer, Lambda 1050) with integrating sphere. The angular intensity distribution of the scattered light at 405 nm was measured with a simple optical goniometer type setup. Given arbitrary optical properties, the total transmittance, total reflectance, and angular distribution can be calculated by the Monte-Carlo method. We then used a particle swarm optimization algorithm on MATLAB (MathWorks, Natick MA) to acquire the optical properties which best fit the measured total transmittance, total reflectance, and angular distribution. FIG. 2E provides sample line graphs showing that the simulated angular distribution of the scattered light well fits the measurement values. Next, we used the acquired scattering coefficient and anisotropy to simulate the spatial distribution of light inside the bioink with Monte-Carlo method. This spatial distribution is also the point spread function of scattering.

[9] = Brix refractometer measurement of 5% GelMA bioink with contrast agents; format: physicochemical; conditions: 5% GelMA bioink, 0, 20, 30, 40, 50% w/v contrast agent
Description: FIGS. 14A and 14B plot the results of measurement using a Brix refractometer of 5% GelMA bioink with various concentrations (0, 20, 30, 40, 50% w/v) of the contrast agents ioversol and iohexol, respectively. For comparison, a 100% (w/v) sample of each contrast agent was also measured. Since this method measures the number of dissolved solids in a liquid based on its specific gravity, the units are in Brix %. FIGS. 14C and 14D show the Brix % data converted to refractive index.

[10] = 35% vs 0% IDX, 7 days after bioprinting, |log2FoldChange|>0.5849, p<0.05
[11] = bioink 5% GelMA, 40 million/mL 293T cells, 30% IDX, 405 nm

Row | SMILES | effect on cells' metabolic activity (CCK8) compared to controls [1] | effect on cells' metabolic activity (CCK8) compared to controls [2] | effect on cells' metabolic activity (CCK8) compared to controls [3] | cell viability (live cell percentage) ([4]; 0% or 35% IDX, Day 1, Day 3, Day 7) | difference in cell viability between 0% and 35% IDX ([4]; n=4, p>0.1 for all pairs) | cell morphology / endothelialization [5] | genes downregulated [6, 10] | genes significantly upregulated [6, 10] | principal component analysis clustering of samples ([6]; 35% vs 0% IDX, n=3) | curated collection gene sets downregulated ([6]; response to IDX exposure) | curated collection gene sets upregulated ([6]; response to IDX exposure) | ontology collection gene sets downregulated ([6]; response to IDX exposure) | ontology collection gene sets upregulated ([6]; response to IDX exposure) | hallmark gene sets significantly enriched (GSEA) ([6]; samples printed with IDX bioink, FDR<25%, p<0.05) | refractive index of the bioink versus IDX concentration ([7]; 5% GelMA, IDX 20% to 35%, 405 nm) | refractive index ([7]; IDX solution) | reduction of scattering ([8]; 30% IDX vs bioink without refractive index tuning) | reduced scattering coefficient [8, 11] | scattering coefficient [8, 11] | tuning of bioink refractive index [9]
1 | CC(=O)N(CC(O)CN(C(C)=O)c1c(I)c(C(=O)NCC(O)CO)c(I)c(C(=O)NCC(O)CO)c1I)c1c(I)c(C(=O)NCC(O)CO)c(I)c(C(=O)NCC(O)CO)c1I (centres unmarked) [IDX, iodixanol] | no statistically significant effect | no statistically significant effect | no statistically significant effect | greater than 90% | No statistically significant difference | no qualitative differences observed | 569 genes | 587 genes | did not cluster into two groups | 11 gene sets | 3 gene sets | 1 gene set | 18 gene sets | xenobiotic metabolism, heme metabolism, and complement gene sets | linearly increases | greater than 1.4 | approximately 10 fold | 0.014 mm^−1 | 1.377 mm^−1 | –
2 | O=C(NCC(O)CO)c1c(I)c(C(=O)NCC(O)CO)c(I)c(N(CCO)C(=O)CO)c1I (centres unmarked) [ioversol] | – | – | – | – | – | – | – | – | – | – | – | – | – | – | – | – | – | – | – | can effectively tune its refractive index

Source: patent US20260199555A1, “3D PRINTING OF HIGH CELL DENSITY VASCULARIZED TISSUE” (priority 2022, published 2026)
